Data: US20220313629A1, “TRANSIENT POTENTIAL MELASTATIN 8 (TRPM8) ANTAGONISTS AND RELATED METHODS” (MARSHALL UNIVERSITY RESEARCH CORPORATION, priority 2019, published 2022)
Where two headings read alike, the source gives them in different places.

Key:
Assay type in all cases: cell-based
TRPM8 = TRPM8 (Homo sapiens, UniProt Q7Z2W7); assay: TRPM8 antagonist activity by Fura-2 Ca2+ imaging in HEK-293 cells stably expressing human TRPM8; details: for IC50: read-out: Functional Activity hTRPM8 potency IC50 ± SEM
human TRPA1 = human TRPA1 (Homo sapiens, UniProt O75762); assay: TRPA1 agonist and antagonist Ca2+ flux assay (FLIPR, Fluo-8) in HEK293 cells stably expressing human TRPA1; details: for effect on hTRPA1-mediated responses (intrinsic and antagonist activity): at concentrations 13- to 25-fold higher than hTRPM8 IC50; for hTRPA1 % Activation (n = 3-5): normalized to Emax of AITC (300 μM)
human TRPV1 = human TRPV1 (Homo sapiens, UniProt Q8NER1); assay: TRPV1 agonist and antagonist Ca2+ flux assay (FLIPR, Fluo-8) in HEK293 cells stably expressing human TRPV1; details: for effect on hTRPV1-mediated responses (intrinsic and antagonist activity): at concentrations 13- to 25-fold higher than hTRPM8 IC50; for hTRPV1 % Activation (n = 3): normalized to Emax of capsaicin (3 μM)
[1] = inhibition of icilin (500 nM)-evoked Ca2+ entry, HEK-293 cells stably expressing hTRPM8, mean ± SEM, three independent experiments
[2] = HEK293, read-out: hTRPA1 % Inhibition (n = 3)
[3] = HEK293, read-out: hTRPV1 % Inhibition (n = 3)
[4] = HEK293, read-out: % Activation Mean ± SEM (n = 5), TRPV1 antagonist data (Percentage Inhibition Normalized to EC80 Control)

Chain of human TRPV1 (Q8NER1 whole entry): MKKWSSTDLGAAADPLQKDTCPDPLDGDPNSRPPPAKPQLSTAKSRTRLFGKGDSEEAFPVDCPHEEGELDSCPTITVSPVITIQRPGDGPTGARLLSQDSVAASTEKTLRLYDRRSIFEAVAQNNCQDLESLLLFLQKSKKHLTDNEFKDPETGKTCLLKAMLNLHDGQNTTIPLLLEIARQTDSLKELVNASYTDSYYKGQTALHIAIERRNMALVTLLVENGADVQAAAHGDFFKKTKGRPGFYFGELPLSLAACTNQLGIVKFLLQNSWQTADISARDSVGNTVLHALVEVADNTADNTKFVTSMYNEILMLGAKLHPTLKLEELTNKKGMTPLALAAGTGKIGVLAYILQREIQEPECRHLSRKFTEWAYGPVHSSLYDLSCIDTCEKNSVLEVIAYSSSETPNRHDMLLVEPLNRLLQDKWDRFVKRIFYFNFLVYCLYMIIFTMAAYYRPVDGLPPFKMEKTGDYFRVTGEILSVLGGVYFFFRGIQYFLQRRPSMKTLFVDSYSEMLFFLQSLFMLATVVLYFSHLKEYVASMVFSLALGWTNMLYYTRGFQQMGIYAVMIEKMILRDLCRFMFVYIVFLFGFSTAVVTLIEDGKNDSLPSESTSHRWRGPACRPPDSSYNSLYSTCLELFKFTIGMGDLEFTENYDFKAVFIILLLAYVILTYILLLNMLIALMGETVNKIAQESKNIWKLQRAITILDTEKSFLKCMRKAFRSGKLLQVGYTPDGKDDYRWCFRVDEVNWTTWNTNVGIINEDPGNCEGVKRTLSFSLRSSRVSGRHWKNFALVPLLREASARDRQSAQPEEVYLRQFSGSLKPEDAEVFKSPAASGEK
Chain of human TRPA1 (O75762 whole entry): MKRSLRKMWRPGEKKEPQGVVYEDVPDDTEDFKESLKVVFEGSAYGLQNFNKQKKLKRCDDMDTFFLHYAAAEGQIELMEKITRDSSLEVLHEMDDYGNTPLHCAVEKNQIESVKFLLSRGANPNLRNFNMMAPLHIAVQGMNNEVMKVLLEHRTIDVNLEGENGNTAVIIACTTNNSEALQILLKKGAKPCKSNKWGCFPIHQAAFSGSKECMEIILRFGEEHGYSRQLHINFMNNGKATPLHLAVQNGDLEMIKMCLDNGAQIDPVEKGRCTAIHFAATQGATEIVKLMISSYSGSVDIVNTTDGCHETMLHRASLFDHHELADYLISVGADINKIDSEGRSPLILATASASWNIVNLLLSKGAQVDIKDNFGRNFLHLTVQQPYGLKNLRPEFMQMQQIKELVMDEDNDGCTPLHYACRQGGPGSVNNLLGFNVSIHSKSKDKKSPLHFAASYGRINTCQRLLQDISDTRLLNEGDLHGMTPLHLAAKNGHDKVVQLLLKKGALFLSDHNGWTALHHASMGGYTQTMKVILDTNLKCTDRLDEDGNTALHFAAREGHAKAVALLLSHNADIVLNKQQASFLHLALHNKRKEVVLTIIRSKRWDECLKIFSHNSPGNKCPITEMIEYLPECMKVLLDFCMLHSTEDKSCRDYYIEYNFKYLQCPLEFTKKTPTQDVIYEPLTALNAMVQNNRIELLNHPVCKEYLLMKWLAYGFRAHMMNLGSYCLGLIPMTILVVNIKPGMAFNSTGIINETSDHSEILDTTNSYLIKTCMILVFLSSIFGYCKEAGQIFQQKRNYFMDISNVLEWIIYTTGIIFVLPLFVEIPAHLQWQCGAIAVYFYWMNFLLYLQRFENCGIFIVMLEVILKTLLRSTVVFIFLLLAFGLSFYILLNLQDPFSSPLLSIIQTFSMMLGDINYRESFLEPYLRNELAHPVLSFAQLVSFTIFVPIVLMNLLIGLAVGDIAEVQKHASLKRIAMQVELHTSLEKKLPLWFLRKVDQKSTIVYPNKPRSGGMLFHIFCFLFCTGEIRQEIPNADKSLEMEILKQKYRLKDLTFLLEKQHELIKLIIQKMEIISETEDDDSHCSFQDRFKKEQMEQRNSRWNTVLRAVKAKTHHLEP
Chain of TRPM8 (Q7Z2W7 whole entry): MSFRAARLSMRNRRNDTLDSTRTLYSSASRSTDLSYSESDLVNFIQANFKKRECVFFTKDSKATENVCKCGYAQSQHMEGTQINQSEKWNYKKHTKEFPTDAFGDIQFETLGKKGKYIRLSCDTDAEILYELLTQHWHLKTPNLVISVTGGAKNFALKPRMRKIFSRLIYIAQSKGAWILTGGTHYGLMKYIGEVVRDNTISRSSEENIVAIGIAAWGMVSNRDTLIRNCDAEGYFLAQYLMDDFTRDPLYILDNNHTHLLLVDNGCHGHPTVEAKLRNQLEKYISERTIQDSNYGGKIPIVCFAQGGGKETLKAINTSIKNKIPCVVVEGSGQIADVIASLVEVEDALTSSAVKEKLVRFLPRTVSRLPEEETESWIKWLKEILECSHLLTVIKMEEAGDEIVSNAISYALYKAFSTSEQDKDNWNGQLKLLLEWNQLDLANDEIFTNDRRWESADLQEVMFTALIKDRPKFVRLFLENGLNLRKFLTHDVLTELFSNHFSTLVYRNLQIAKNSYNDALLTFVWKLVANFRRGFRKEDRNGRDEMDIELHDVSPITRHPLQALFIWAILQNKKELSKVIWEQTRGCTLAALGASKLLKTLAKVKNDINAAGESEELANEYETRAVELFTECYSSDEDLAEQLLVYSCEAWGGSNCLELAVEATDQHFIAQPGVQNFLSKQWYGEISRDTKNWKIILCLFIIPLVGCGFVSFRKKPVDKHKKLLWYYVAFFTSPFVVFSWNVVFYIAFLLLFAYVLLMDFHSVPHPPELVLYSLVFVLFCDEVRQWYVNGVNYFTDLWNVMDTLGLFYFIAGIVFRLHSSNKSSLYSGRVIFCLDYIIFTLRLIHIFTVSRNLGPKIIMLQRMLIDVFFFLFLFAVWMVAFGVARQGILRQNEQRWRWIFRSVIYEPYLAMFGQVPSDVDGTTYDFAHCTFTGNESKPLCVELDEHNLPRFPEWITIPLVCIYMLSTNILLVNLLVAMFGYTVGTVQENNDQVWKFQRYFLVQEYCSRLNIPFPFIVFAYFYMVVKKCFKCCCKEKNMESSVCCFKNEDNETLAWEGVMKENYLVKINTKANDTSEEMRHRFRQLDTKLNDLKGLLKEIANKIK

In the case of `CC1CCC(C(C)C)C(NC(=O)c2ccc(-c3ccccc3)cc2)C1` (mixture of isomers) [Compound 2, N-(2-isopropyl-5-methylcyclohexyl)-[1,1′-biphenyl]-4-carboxamide], the “increase of hTRPM8 activity relative to Compound 1” value (TRPM8; icilin Ca2+ assay) is reported as 30 fold and the IC50 (TRPM8; [1]) is reported as 0.468 ± 0.001 µM.

`O=C(NC1CCCC2CCCCC21)c1ccc(-c2ccccc2)cc1` (mixture of isomers) [Compound 8, N-(decahydronaphthalen-1-yl)-[1,1′-biphenyl]-4-carboxamide] showed an IC50 (TRPM8; [1]) of 21 ± 1 µM.

`O=C(NC1CCC2CCCCC2C1)c1ccc(-c2ccccc2)cc1` (mixture of isomers) [Compound 10, N-(decahydronaphthalen-2-yl)-[1,1′-biphenyl]-4-carboxamide] was tested, and the “enhancement of TRPM8 potency relative to Compound 8” value (TRPM8; icilin Ca2+ assay) was 3,500 fold, the “higher potency than Compound 5 and Compound 7” value (TRPM8; icilin Ca2+ assay) was 10 fold and the IC50 (TRPM8; [1]) was 0.006 ± 0.001 µM. For the same compound, the IC50 (TRPM8) was no more than 0.01 µM, the inhibition at 0.01 µM (human TRPA1; [2]) was -8 ± 3% and the inhibition at 0.1 µM (human TRPA1; [2]) was -1 ± 10%. For the same compound, the “effect on hTRPA1-mediated responses (intrinsic and antagonist activity)” value (human TRPA1) was “does not activate or inhibit”, the “hTRPA1 % Activation (n = 3-5)” value (human TRPA1; tested at 10 nM) was 0.2 ± 0.4% and the “hTRPA1 % Activation (n = 3-5)” value (human TRPA1; tested at 100 nM) was −1.1 ± 0.2%. For the same compound, the inhibition at 0.01 µM (human TRPV1; [3]) was -13 ± 4%, the inhibition at 0.1 µM (human TRPV1; [3]) was 2 ± 3% and the “effect on hTRPV1-mediated responses (intrinsic and antagonist activity)” value (human TRPV1) was “does not activate or inhibit”. For the same compound, the “hTRPV1 % Activation (n = 3)” value (human TRPV1; tested at 10 nM) was 2.4 ± 0.8% and the “hTRPV1 % Activation (n = 3)” value (human TRPV1; tested at 100 nM) was 2.3 ± 0.9%.

`O=C(NC1CCC2CCCCC2C1)c1ccc(-c2ccccc2)cc1` (racemic) [Compound 12, N-((2SR,9RS,10SR)-decahydronaphthalen-2-yl)-[1,1′-biphenyl]-4-carboxamide] was tested, and the inhibition at 0.003 µM (human TRPA1; [2]) was -0.3 ± 3%, the inhibition at 0.03 µM (human TRPA1; [2]) was 5 ± 9% and the “effect on hTRPA1-mediated responses (intrinsic and antagonist activity)” value (human TRPA1) was “do not affect”. For the same compound, the “hTRPA1 % Activation (n = 3-5)” value (human TRPA1; tested at 3 nM) was −2.3 ± 1.0%, the “hTRPA1 % Activation (n = 3-5)” value (human TRPA1; tested at 30 nM) was −2.1 ± 0.5% and the inhibition at 0.003 µM (human TRPV1; [3]) was -12 ± 3%. For the same compound, the inhibition at 0.03 µM (human TRPV1; [3]) was 1 ± 2%, the “effect on hTRPV1-mediated responses (intrinsic and antagonist activity)” value (human TRPV1) was “do not affect” and the “hTRPV1 % Activation (n = 3)” value (human TRPV1; tested at 3 nM) was 2 ± 1%. The “hTRPV1 % Activation (n = 3)” value (human TRPV1; tested at 30 nM) was 3 ± 1%.

`O=C(NC1CC2CCC1C2)c1ccc(-c2ccccc2)cc1` (single isomer, unassigned) [Compound 4, N-(bicyclo[2.2.1]heptan-2-yl)-[1,1′-biphenyl]-4-carboxamide] showed an IC50 (TRPM8) of 7.1 ± 0.9 µM.

With `C=CCN=C=S` [AITC, Allyl isothiocyanate, reference compound] the “% Activation Mean ± SEM (n = 5), TRPA1 agonist data” value (human TRPA1; 100 nM, normalized to Emax of AITC) was −0.8 ± 0.4%, the “% Activation Mean ± SEM (n = 5), TRPA1 agonist data” value (human TRPA1; 300 nM, normalized to Emax of AITC) was −0.5 ± 0.2% and the “% Activation Mean ± SEM (n = 5), TRPA1 agonist data” value (human TRPA1; 1,000 nM, normalized to Emax of AITC) was −0.5 ± 0.2%. For the same compound, the “% Activation Mean ± SEM (n = 5), TRPA1 agonist data” value (human TRPA1; 3,000 nM, normalized to Emax of AITC) was −1.2 ± 0.2%, the “% Activation Mean ± SEM (n = 5), TRPA1 agonist data” value (human TRPA1; 10,000 nM, normalized to Emax of AITC) was 68.8 ± 2.9% and the “% Activation Mean ± SEM (n = 5), TRPA1 agonist data” value (human TRPA1; 30,000 nM, normalized to Emax of AITC) was 78.5 ± 1.0%. For the same compound, the “% Activation Mean ± SEM (n = 5), TRPA1 agonist data” value (human TRPA1; 100,000 nM, normalized to Emax of AITC) was 94.2 ± 2.4% and the “% Activation Mean ± SEM, TRPA1 agonist data” value (human TRPA1; 300,000 nM, normalized to Emax of AITC, n = 10) was 100.0 ± 1.3 %.

In the case of `COc1cc(CNC(=O)CCCC/C=C/C(C)C)ccc1O` [Capsaicin, reference compound], the “% Activation Mean ± SEM (n = 5), TRPV1 agonist data” value (human TRPV1; 1 nM, normalized to Emax of capsaicin) is reported as −0.2 ± 1.0%, the “% Activation Mean ± SEM (n = 5), TRPV1 agonist data” value (human TRPV1; 3 nM, normalized to Emax of capsaicin) is reported as −1.7 ± 0.7% and the “% Activation Mean ± SEM (n = 5), TRPV1 agonist data” value (human TRPV1; 10 nM, normalized to Emax of capsaicin) is reported as 15.2 ± 0.6%. The “% Activation Mean ± SEM (n = 5), TRPV1 agonist data” value (human TRPV1; 30 nM, normalized to Emax of capsaicin) was 72.4 ± 2.3%, the “% Activation Mean ± SEM (n = 5), TRPV1 agonist data” value (human TRPV1; 100 nM, normalized to Emax of capsaicin) was 81.4 ± 3.3% and the “% Activation Mean ± SEM (n = 5), TRPV1 agonist data” value (human TRPV1; 300 nM, normalized to Emax of capsaicin) was 91.8 ± 3.7%. For the same compound, the “% Activation Mean ± SEM (n = 5), TRPV1 agonist data” value (human TRPV1; 1,000 nM, normalized to Emax of capsaicin) was 101.6 ± 2.0%, the “% Activation Mean ± SEM, TRPV1 agonist data” value (human TRPV1; 3,000 nM, normalized to Emax of capsaicin, n = 10) was 100.0 ± 1.8 % and the “% Activation, EC80 agonist control of the TRPV1 antagonist assay” value (human TRPV1; Capsaicin EC80, 100 nM, normalization control) was 100%.

`Oc1cc2c(cc1O)CN(C(=S)NCCc1ccc(Cl)cc1)CCC2` [Capsazepine, reference compound] gave an inhibition at 0.003 µM (human TRPV1; [4]) of 1.6 ± 4.2%, an inhibition at 0.01 µM (human TRPV1; [4]) of 0.1 ± 1.3% and an inhibition at 0.03 µM (human TRPV1; [4]) of 1.1 ± 1.7%. For the same compound, the inhibition at 0.1 µM (human TRPV1; [4]) was 7.1 ± 2.2%, the inhibition at 0.3 µM (human TRPV1; [4]) was 23.4 ± 2.5% and the inhibition at 1 µM (human TRPV1; [4]) was 94.2 ± 1.1%. For the same compound, the inhibition at 3 µM (human TRPV1; [4]) was 100.6 ± 0.3%, the inhibition at 10 µM (human TRPV1; [4]) was 101.2 ± 0.5% and the IC50 (human TRPV1; capsaicin 100 nM, read-out: IC50, blockade of capsaicin-activated hTRPV1 responses) was 0.451 ± 0.048 µM.
